Assays:
[1] = Plasma protein binding by equilibrium dialysis, mouse plasma; type: in vitro ADME; conditions: 37° C., read-out: Free fraction in plasma, Mouse (%)
Procedure: (§1) Plasma protein binding rate of compounds was detected by equilibrium dialysis (HTDialysis, HTD 96b). The compound was prepared into a […] stock solution with DMSO, and then 25-fold diluted with 0.05 M sodium phosphate buffer as a working solution. A blank 96-well plate was taken and preloaded with 380 μL of plasma per well. The plasma was then added with the working solution at 20 μL/well and mixed well, with the compound at a final concentration of 1 μM, containing 0.2% DMSO per well.
(§2) 100 μL of 0.05 M sodium phosphate buffer was added to the reception-side of each dialysis chamber (HTD 96b), and then 100 μL of plasma containing the compound was added to the supply-side. The dialysis chamber was covered with a plastic lid, shaken and incubated at 37° C. for 5 h.
(§3) After incubation, 25 μL of samples were taken from each of the supply-side and the reception-side of the dialysis chamber and placed in the blank 96-well plate. An equal volume of plasma was added to each of the supply-side samples while an equal volume of 0.05 M sodium phosphate buffer was added to each of the reception-side samples and mixed well. The 96-well plate was added with an acetonitrile solution containing internal standard at 200 μL per well, vortexed and shaken at 600 rpm for 10 min, and centrifuged at 5594 g for 15 min (Thermo Multifuge×3R). 50 μL of the supernatant was then transferred to a new 96-well plate, and the samples were mixed with 50 μL of ultra-pure water for LC-MS/MS analysis.
(§4) Plasma protein binding rate and free fraction were calculated using the following formulas: % binding rate=100×([supply-side concentration]5h−[reception-side concentration]5h)/[supply-side concentration]5h. % free fraction=100−% binding rate.

KRAS G12C-SOS1 = KRAS G12C-SOS1 (Homo sapiens (Human), UniProt Q07889); assay: Inhibition test of compounds on KRAS G12C::SOS1 binding; conditions: GST-KRAS G12C, His-SOS1
Sequence of KRAS G12C-SOS1 (Q07889 whole entry, stated change not applied): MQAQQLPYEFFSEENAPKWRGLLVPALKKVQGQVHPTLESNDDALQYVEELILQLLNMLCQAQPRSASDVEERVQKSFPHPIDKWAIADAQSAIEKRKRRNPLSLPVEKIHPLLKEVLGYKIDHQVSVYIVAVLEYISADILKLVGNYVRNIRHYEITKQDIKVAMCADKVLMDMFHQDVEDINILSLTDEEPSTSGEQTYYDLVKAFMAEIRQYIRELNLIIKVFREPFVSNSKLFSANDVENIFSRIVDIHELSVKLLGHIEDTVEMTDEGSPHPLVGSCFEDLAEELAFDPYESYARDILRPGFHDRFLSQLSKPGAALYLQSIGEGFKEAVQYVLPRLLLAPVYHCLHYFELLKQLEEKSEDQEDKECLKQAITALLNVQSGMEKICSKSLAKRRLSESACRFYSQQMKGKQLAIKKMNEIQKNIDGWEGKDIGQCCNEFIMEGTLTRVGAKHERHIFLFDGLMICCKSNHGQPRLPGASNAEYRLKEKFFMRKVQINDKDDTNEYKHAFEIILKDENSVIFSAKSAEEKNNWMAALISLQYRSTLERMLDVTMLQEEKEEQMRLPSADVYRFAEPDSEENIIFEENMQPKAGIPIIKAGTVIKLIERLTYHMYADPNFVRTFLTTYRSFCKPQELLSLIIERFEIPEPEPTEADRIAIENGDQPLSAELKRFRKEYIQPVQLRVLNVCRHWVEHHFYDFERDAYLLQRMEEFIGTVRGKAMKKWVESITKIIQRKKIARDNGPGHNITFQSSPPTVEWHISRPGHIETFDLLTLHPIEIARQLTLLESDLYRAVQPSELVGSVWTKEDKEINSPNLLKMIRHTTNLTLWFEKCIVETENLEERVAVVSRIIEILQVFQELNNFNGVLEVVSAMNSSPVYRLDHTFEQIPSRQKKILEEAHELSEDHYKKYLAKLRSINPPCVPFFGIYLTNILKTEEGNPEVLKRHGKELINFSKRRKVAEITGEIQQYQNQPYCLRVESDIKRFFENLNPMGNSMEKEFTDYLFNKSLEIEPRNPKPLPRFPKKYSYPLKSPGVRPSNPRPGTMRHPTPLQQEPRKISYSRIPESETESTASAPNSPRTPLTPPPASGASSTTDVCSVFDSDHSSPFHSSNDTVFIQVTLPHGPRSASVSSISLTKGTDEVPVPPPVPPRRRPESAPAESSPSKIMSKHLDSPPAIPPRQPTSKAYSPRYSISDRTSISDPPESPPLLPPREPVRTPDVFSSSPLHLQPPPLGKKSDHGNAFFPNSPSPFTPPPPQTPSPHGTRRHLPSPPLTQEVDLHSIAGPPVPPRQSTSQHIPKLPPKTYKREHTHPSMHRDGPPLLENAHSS
Procedure: The compound to be tested was prepared into a 10 mM stock solution with DMSO, and the compound was serially diluted using 1× test buffer. 0.1 μL of the compound solution with different concentrations was transferred to a 384-well plate. […] 5 μL of His-SOS1 was added to the 384-well plate, centrifuged at 1000 rpm for 1 min, and incubated at room temperature for 15 min.
After incubation, 10 μL of a mixed solution of anti-6his-Tb monoclonal antibody (Cisbio, Cat. No. 61HI2TLA) and anti-GST-XL665 monoclonal antibody (Cisbio, Cat. No. 61GSTXLA) was added to the test well, centrifuged at 1000 rpm for 1 min, and incubated at room temperature for 1 h.
After incubation, the fluorescence signal ratios at 665 nm and 615 nm were read on a multifunctional microplate reader (Perkin Elmer, Envision 2104), and the IC50 values were calculated using Graphpad 5 software.

[2] = Plasma protein binding by equilibrium dialysis, human plasma; type: in vitro ADME; conditions: 37° C., read-out: Free fraction in plasma, Human (%)
Procedure: as §1, §2, §3, §4

[3] = system: Mia Paca-2 pancreatic cancer; assay: Mia Paca-2 pancreatic cancer in vivo efficacy test; parameters: species or system mice
Procedure: (§5) After one week of adaptive feeding of mice, Mia Paca-2 cells in a log phase were resuspended in serum-free DMEM, and then mixed with Matrigel in a ratio of 1:1.1×10^7 Mia Paca-2 cells were inoculated subcutaneously at the right flank at 100 μL per mouse, and tumor growth was observed regularly. When the tumor grew to an average volume of 150 to 200 mm^3, the mice were randomly divided into a model group and an administration group (single drug, in combination with trametinib) based on the tumor size and body weight. The tumor size and body weight were measured and recorded before and during the administration. After the treatment, the tumor size in the model group was compared with that in the administration group to determine the efficacy.

H358 cells = assay: Inhibition of 3D cell proliferation (3D CellTiter-Glo); type: cell-based; conditions: Homo sapiens, NCI-H358, 168 h, read-out: IC50 (nM), inhibition of 3D proliferation of H358 cells, 7 days
Procedure: H358 cells were seeded in a T75 culture flask and cultured in a RPMI 1640 medium containing 10% FBS for 2 days for subsequent experiments in which the cells would be cultured or seeded on a 384-well plate.
On day 1, the cells were seeded on the 384-well plate, with 40 μL of medium added per well and serially diluted compounds or DMSO added per well, and an additional well without seeded cells but with medium was set up as a blank control. After culture at 37° C., 5% CO2 for 7 days, the plate was added with 3D CellTiter-Glo reagent (Promega, Cat. No. G9683) on day 8, shaken at 320 rpm for 20 min, and left at room temperature for 2 h. Luminescence signals were read on a multifunctional microplate reader. Cell viability inhibition rate was calculated as:
Cell viability inhibition rate=(DMSO group−test compound)/(DMSO group−blank control group)×100%
(§6) IC50 values were calculated using Graphpad 5 software.

LOVO colorectal cancer = LOVO colorectal cancer in vivo efficacy test; parameters: species or system mice; conditions: 25 mg/kg BID
Procedure: as §5, with “LOVO” for “Mia Paca-2”, “F12K, 5×10^6 LOVO” for “DMEM, and then mixed with Matrigel in a ratio of 1:1.1×10^7 Mia Paca-2”, “group” for “group (single drug, in combination with trametinib)”

[4] = system: ERK phosphorylation level in DLD-1 cells; assay: Inhibition of ERK phosphorylation level in DLD-1 cells (intracellular western blot); type: cell-based; conditions: Homo sapiens
Procedure: Intracellular western blot quantitative analysis was used to detect the inhibitory level of compounds on ERK phosphorylation in DLD-1 cells.
DLD-1 cells (ATCC, CCL-221) were seeded in a T75 culture flask at 2.5×10^6 cells/flask and cultured in a RPMI 1640 medium containing 10% FBS for 2 days. On day 3, the cells were seeded on a 384-well plate, and cultured overnight at 37° C., 5% CO2. After overnight culture, the plate was added with serially diluted compounds (the final content of DMSO was 0.5%), the negative group was added with DMSO, and incubated in a 37° C., 5% CO2 incubator.
The cells were fixed, washed once with PBS, treated to disrupt membranes, and blocked at room temperature for 1 h. The blocking solution was removed. The plate was added with primary antibody (CST, Cat. No. #4370S), and incubated overnight at 4° C. The plate was washed 3 times with PBST (PBS solution added with 0.05% Tween-20) and soaked for 2 min each time. The plate was added with secondary antibody (LI-COR, Cat. No. 926-32211) and incubated at room temperature in the dark. The plate was washed 3 times with PBST and soaked for 2 min each time. The plate was centrifuged at 1000 rpm for 1 min, scanned on a two-color infrared laser imaging system (Odyssey® CLX) to read the signal.
Relative signal=800-channel signal values/700-channel signal values.
Relative expression level of ERK phosphorylation=(test compound−control compound I)/(DMSO group−control compound I)
as §6

[5] = Pharmacokinetic test in mice; type: in vivo; conditions: mouse, plasma; male ICR mice, oral gavage, 10 mg/kg
Procedure: Male ICR mice (20 to 25 g) were used and fasted overnight. Three mice were taken and orally administered by gavage (10 mg/kg). Blood was collected before the administration, and at 15 min, 30 min, 1 h, 2 h, 4 h, 8 h and 24 h after the administration. 6,800 g of the blood samples were centrifuged at 2 to 8° C. for 6 min, and plasma was collected and stored at −80° C. The plasma at each time point was taken and added with an acetonitrile solution containing internal standard in 3 to 5 times the amount, vortexed and mixed for 1 min, and centrifuged at 13,000 rpm/min at 4° C. for 10 min. The supernatant was collected, added with water in 3 times the amount, and mixed. An appropriate amount of the mixture was taken for LC-MS/MS analysis. The main pharmacokinetic parameters were analyzed using WinNonlin 7.0 software with non-compartmental model.

[6] = Human liver microsome stability test; type: in vitro ADME; conditions: human, human liver microsomes
Procedure: The human liver microsome stability test was performed by incubating the compound and human liver microsomes in vitro. First, the compound to be tested was prepared into a 10 mM stock solution in DMSO solvent, and then the compound was diluted to 0.5 mM with acetonitrile. Human liver microsomes (Corning) were diluted with PBS into a microsome/buffer solution, and the solution was used to dilute 0.5 mM compound into a working solution, in which the concentration of the compound was 1.5 μM, and the concentration of human liver microsomes was 0.75 mg/mL. A deep-well plate was taken, 30 μL of the working solution was added per well, and then 15 μL of pre-heated 6 mM NADPH solution was added thereto to initiate a reaction, and the reaction was incubated at 37° C. At 0, 5, 15, 30 and 45 min of the incubation, 135 μL of acetonitrile was added to the corresponding wells to terminate the reaction. After the reaction was terminated with acetonitrile at the last time point of 45 min, the deep-well plate was vortexed and vibrated for 10 min (600 rpm/min), and then centrifuged for 15 min. After centrifugation, the supernatant was collected, and added with purified water in a ratio of 1:1 to perform LC-MS/MS detection. A ratio of a peak area of compound to a peak area of internal standard at each time point was obtained, and the peak area ratios of the compound at 5, 15, 30 and 45 min were compared with the peak area ratio at 0 min to calculate the remaining percentage of the compound at each time point. T1/2 was calculated by using GraphPad 5 software.

## Cc1nc(N[C@H](C)c2cccc(S(=O)(=O)C(F)F)c2F)c2cn(C3(CF)CC3)c(=O)cc2n1 [Compound I-5, (R)-4-((1-(3-((difluoromethyl)sulfonyl)-2-fluorophenyl)ethyl)amino)-6-(1-(fluoromethyl)cyclopropyl)-2-methylpyrido[4,3-d]pyrimidin-7(6H)-one]
[1]
  fraction unbound at 5 h, 1 µM: 0.114
KRAS G12C-SOS1
  IC50: 10 nM
[2]
  fraction unbound at 5 h, 1 µM: 0.077

## Cc1nc(N[C@H](C)c2cccc(S(F)(F)(F)(F)F)c2)c2cn(C3(C(F)F)CC3)c(=O)cc2n1 [Compound I-23, (R)-6-(1-(difluoromethyl)cyclopropyl)-2-methyl-4-((1-(3-(pentafluorosulfanyl)phenyl)ethyl)amino)pyrido[4,3-d]pyrimidin-7(6H)-one]
[3]; Mia Paca-2, 25 mg/kg BID
  Average tumor weight at the end of the treatment: 0.45 g
  Tumor weight inhibition rate (relative to the vehicle group): 61%
[3]; Mia Paca-2, 50 mg/kg BID
  Average tumor weight at the end of the treatment: 0.38 g
  Tumor weight inhibition rate (relative to the vehicle group): 67%
H358 cells
  IC50: 12 nM
KRAS G12C-SOS1
  IC50: 4.9 nM
LOVO colorectal cancer
  Average tumor weight at the end of the treatment: 0.65 g
  Tumor weight inhibition rate (relative to the vehicle group): 53%
[4]
  IC50: 159 nM
[5]
  AUC(0-t): 44100 ng·h/mL
  Cmax: 4240 ng/mL
  Tmax: 2 h
  half-life: 2.33 h

## Cc1nc(N[C@H](C)c2cccc(C(F)(F)F)c2C)c2cn(C3(CF)CC3)c(=O)cc2n1 [Control compound I, reference compound]
[1]
  fraction unbound at 5 h, 1 µM: 0.005
[5]
  AUC(0-t): 365 ng·h/mL
  Cmax: 176 ng/mL
  Tmax: 0.25 h
  half-life: 1.35 h
[2]
  fraction unbound at 5 h, 1 µM: 0.009
[6]
  half-life at 1 µM: 1.07 h

Source: patent publication US20240166645A1, “PYRIDOPYRIMIDINONE DERIVATIVE, PREPARATION METHOD THEREFOR, AND USE THEREOF” (Wuhan Humanwell Innovative Drug Research and Development …, priority 2021, published 2024)
